Assay: relative permittivity at zero frequency (dimensionless); xn = mol fraction of the nth substance listed
Settings: Gas, Reentrant cavity resonator

[Ar] [argon] + O=C=O
Settings	relative permittivity at zero frequency
255.1 K, 2068.9 kPa, x1 = 0.0505	1.02661
260.14 K, 2446.9 kPa, x1 = 0.0505	1.03197
266.15 K, 2919.5 kPa, x1 = 0.0505	1.03887
271.4 K, 3365.6 kPa, x1 = 0.0505	1.04566
273.2 K, 454.8 kPa, x1 = 0.2491	1.004
273.2 K, 962.7 kPa, x1 = 0.2491	1.0088
273.2 K, 1001.6 kPa, x1 = 0.2491	1.0091
273.2 K, 2004.3 kPa, x1 = 0.2491	1.0195
273.2 K, 2014.8 kPa, x1 = 0.2491	1.0196
273.2 K, 3008.7 kPa, x1 = 0.2491	1.0314
273.2 K, 4029 kPa, x1 = 0.2491	1.0459
273.2 K, 4487 kPa, x1 = 0.2491	1.0535
273.21 K, 506.6 kPa, x1 = 0.2491	1.0045
279.73 K, 4266.1 kPa, x1 = 0.0505	1.06129
279.73 K, 4267.8 kPa, x1 = 0.0505	1.06132
283.23 K, 492.8 kPa, x1 = 0.2491	1.0042
283.23 K, 969.4 kPa, x1 = 0.0505	1.00945
283.23 K, 4007.7 kPa, x1 = 0.0505	1.05273
283.23 K, 4493.9 kPa, x1 = 0.0505	1.06407
283.23 K, 6491.3 kPa, x1 = 0.2491	1.0858
283.24 K, 1029.9 kPa, x1 = 0.0505	1.01008
283.24 K, 2002 kPa, x1 = 0.2491	1.0185
283.24 K, 2006.1 kPa, x1 = 0.0505	1.0212
283.24 K, 2011.5 kPa, x1 = 0.0505	1.02127
283.24 K, 2992.8 kPa, x1 = 0.2491	1.0294
283.24 K, 2993.3 kPa, x1 = 0.2491	1.0294
283.24 K, 2998.2 kPa, x1 = 0.0505	1.03482
283.24 K, 3973.7 kPa, x1 = 0.0505	1.05203
283.24 K, 3995.6 kPa, x1 = 0.2491	1.042
283.24 K, 4006.4 kPa, x1 = 0.2491	1.0421
283.24 K, 4991.8 kPa, x1 = 0.2491	1.0568
283.24 K, 5983.5 kPa, x1 = 0.2491	1.0748
283.24 K, 5987 kPa, x1 = 0.2491	1.0749
283.25 K, 1008.9 kPa, x1 = 0.2491	1.0088
283.25 K, 2012.2 kPa, x1 = 0.2491	1.0186
283.44 K, 4710.8 kPa, x1 = 0.0505	1.06985
289.87 K, 5632 kPa, x1 = 0.0505	1.09119
292.67 K, 6086.3 kPa, x1 = 0.0505	1.10382
293.27 K, 1007.1 kPa, x1 = 0.2491	1.0085
293.27 K, 2005.7 kPa, x1 = 0.2491	1.0177
293.27 K, 3006.2 kPa, x1 = 0.2491	1.0279
293.27 K, 4006.6 kPa, x1 = 0.2491	1.0394
293.27 K, 4993.4 kPa, x1 = 0.2491	1.0523
293.27 K, 5847.6 kPa, x1 = 0.2491	1.0651
293.27 K, 6499.2 kPa, x1 = 0.2491	1.0761
293.28 K, 3999.6 kPa, x1 = 0.2491	1.0393
293.28 K, 5994.6 kPa, x1 = 0.2491	1.0674
294.27 K, 6419.2 kPa, x1 = 0.0505	1.11591
313.26 K, 2602.6 kPa, x1 = 0.0505	1.02461
313.26 K, 3052 kPa, x1 = 0.0505	1.02963
313.26 K, 3592.1 kPa, x1 = 0.0505	1.03607
313.28 K, 7083.6 kPa, x1 = 0.0505	1.0967
313.29 K, 4089.6 kPa, x1 = 0.0505	1.04247
313.3 K, 4550.7 kPa, x1 = 0.0505	1.04884
313.3 K, 5083 kPa, x1 = 0.0505	1.05688
313.3 K, 5566.4 kPa, x1 = 0.0505	1.06488
313.3 K, 6028.4 kPa, x1 = 0.0505	1.07333
313.3 K, 6550 kPa, x1 = 0.0505	1.08408
313.3 K, 7027.1 kPa, x1 = 0.0505	1.09523
